Experimental data: ChEMBL document CHEMBL1154593, “Insights into the inhibition of xanthine oxidase by curcumin” (Bioorg Med Chem Lett, 2009)

Molecular target: Xanthine dehydrogenase/oxidase (Homo sapiens, UniProt P47989)
Assay: Inhibition of xanthine oxidase

Sequence of Xanthine dehydrogenase/oxidase (P47989 whole entry): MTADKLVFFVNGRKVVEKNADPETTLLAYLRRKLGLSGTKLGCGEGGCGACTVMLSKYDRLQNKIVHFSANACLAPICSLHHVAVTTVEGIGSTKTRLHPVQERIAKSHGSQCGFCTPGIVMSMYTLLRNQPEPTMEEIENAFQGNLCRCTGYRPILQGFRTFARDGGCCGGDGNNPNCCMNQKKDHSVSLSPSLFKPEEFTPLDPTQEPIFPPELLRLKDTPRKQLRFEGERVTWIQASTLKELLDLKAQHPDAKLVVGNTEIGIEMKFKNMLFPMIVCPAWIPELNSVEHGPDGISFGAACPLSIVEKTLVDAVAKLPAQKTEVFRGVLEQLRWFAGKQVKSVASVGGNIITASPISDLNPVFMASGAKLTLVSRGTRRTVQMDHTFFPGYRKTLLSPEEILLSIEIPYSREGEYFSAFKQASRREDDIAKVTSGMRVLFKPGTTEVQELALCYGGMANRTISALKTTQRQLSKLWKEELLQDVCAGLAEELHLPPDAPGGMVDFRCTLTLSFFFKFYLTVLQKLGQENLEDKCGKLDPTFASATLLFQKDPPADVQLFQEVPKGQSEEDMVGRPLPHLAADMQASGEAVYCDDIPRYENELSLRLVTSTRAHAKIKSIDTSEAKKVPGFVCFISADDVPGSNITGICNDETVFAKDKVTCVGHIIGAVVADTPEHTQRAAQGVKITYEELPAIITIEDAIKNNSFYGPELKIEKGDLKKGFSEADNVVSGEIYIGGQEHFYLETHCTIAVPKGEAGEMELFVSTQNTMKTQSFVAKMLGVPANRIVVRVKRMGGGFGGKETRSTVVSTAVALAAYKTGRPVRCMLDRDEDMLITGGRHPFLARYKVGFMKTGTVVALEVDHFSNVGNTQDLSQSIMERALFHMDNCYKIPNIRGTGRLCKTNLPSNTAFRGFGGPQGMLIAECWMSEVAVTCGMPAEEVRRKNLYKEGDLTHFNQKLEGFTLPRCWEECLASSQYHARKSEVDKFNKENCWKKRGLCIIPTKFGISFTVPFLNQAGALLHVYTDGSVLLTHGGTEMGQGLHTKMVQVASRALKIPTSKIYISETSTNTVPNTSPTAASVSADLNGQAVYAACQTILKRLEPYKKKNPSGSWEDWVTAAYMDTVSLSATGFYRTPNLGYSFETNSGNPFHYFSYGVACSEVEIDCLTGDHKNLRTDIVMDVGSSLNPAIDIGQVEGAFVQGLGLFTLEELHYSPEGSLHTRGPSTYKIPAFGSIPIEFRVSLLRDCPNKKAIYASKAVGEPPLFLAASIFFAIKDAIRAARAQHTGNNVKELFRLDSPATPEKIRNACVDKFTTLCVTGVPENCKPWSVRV

- Ki: 93.9 µM
SMILES: COc1cc(/C=C/C=O)ccc1O [CONIFERYL ALDEHYDE]
